Common to all, as to test: growth of human tumour cells (NCI), 48 h
In assay [1] the test system is CCRF-CEM leukemia.
The test system of assay [2] is SNB-75 CNS.
The subject of assay [3] is COLO 205 colon.
The test system of assay [4] is UACC-257 melanoma.
Assay [5] has as its system NCI/ADR-RES ovarian.
In assay [6] the test system is SF-295 CNS.
Assay [7] deals with MCF7 breast.
The test system of assay [8] is MALME-3M melanoma.
For assay [9], the system named is DU-145 prostate.
The test system of assay [10] is SK-MEL-2 melanoma.

Experimental findings from PubChem BioAssay (NCI) are described below.

Values joined by “and” are separate entries in the source; they are usually repeats but may differ in a detail not shown here. Equal entries are not always repeated.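 These data come from cells grown in 96-well plates and exposed to compound for 48 hours at five concentrations. Here, GI50 denotes the concentration required for 50% inhibition of growth. TGI: total growth inhibition.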

Regarding `N#C/C(N)=C(\C#N)N=Cc1csc2ccccc12`, the GI50 in assay [1] was more than 100 µM; in [2] it was 12.5 µM; in [3], 72.3 µM; in assay [4], more than 100 µM; in assay [5], 32.4 µM; in assay [6], 51.5 µM. Moreover, the GI50 in assay [7] is 3.41 µM; in assay [8], 50.9 µM; in [9] it was 29.6 µM; in [10], more than 100 µM. For the same molecule, the TGI was more than 100 µM in assay [1]; 31.2 µM in assay [2]; more than 100 µM in [3]; more than 100 µM in assay [4]; more than 100 µM in [5]; more than 100 µM in assay [6]. Moreover, the TGI in [7], in assay [8], in assay [9] and in assay [10] was more than 100 µM in each case.
As for `O=C1C(=O)c2ccccc2C(O)=C1CC=C(Cl)Cl`, the GI50 was 1.57 µM and 4.69 µM in assay [1]; 21.3 µM and 6.06 µM in assay [2]; 11.4 µM and 11.2 µM in assay [3]; 5.15 µM and 6.97 µM in [5]; 9.87 µM and 7.86 µM in assay [6]; 5.15 µM and 4.73 µM in assay [7]. Besides, the GI50 in [8] is 16.2 µM and 28.2 µM; in assay [9], 12 µM and 10.9 µM; in assay [10], 22.1 µM. In addition, the TGI in [1] was 52.1 µM and 162 µM and > 100 µM; in assay [2], 65 µM and 169 µM and > 100 µM; in assay [3], 28.8 µM and > 85.5 µM and > 100 µM; in assay [4], 58.2 µM and 65.8 µM and 65.3 µM; in assay [5] it was 56 µM and 174 µM and > 100 µM; in assay [6], 75.5 µM and 137 µM. Further, the TGI in assay [7] was > 58.5 µM and 131 µM and > 100 µM; in assay [8] it was 51.8 µM and 42.5 µM and 94.5 µM; in assay [9], 204 µM and > 100 µM; in [10], 44.3 µM and 47.1 µM and 63.9 µM.
With `CNC(=O)OC1C(O[C@H]2C[C@H]3[C@@H]4CC=C5C[C@@H](O)CC[C@]5(C)[C@H]4CC[C@]3(C)[C@H]2[C@H](C)C(=O)CCC(C)C)OCC(O)C1OC1OCC(O)C(O)C1OC(=O)c1ccc(OC)cc1` (some centres undefined), the GI50 in [1] was 0.00566 µM; in assay [2], 0.00628 µM; in [3], 0.0579 µM; in [4], 0.0237 µM; in assay [5], 7.1 µM; in assay [6], less than 0.00275 µM. The GI50 in [7] was 0.0149 µM; in assay [8] it was 0.0517 µM; in assay [9], 0.0246 µM; in [10], 0.00933 µM. The TGI in [1] came out at 0.0373 µM; in [2], 4.97 µM; in [3], 0.361 µM; in [4] it was 0.105 µM; in assay [5] it was 27.5 µM; in [6], 0.00628 µM. Also, the TGI in assay [7] came out at 2.87 µM; in [8] it was 2.33 µM; in assay [9] it was 6.12 µM; in assay [10], 0.324 µM.
For the molecule `O=C(NNS(=O)(=O)c1ccc(F)cc1)c1cccnc1Nc1ccc(Cl)cc1Cl`, the GI50 in assay [1] is 21.1 µM; in [2], 25.5 µM; in assay [3], 16.4 µM; in assay [4], 11.8 µM; in assay [5], 39.8 µM; in assay [6] it was 36.9 µM. Besides, the GI50 was 31.5 µM in assay [7], 34.7 µM in assay [8], 22.9 µM in assay [9] and 42.3 µM in assay [10]. Further, the TGI in assay [1] was more than 100 µM; in [2], more than 100 µM; in assay [3], 50.8 µM; in assay [4] it was 51.9 µM; in assay [5], more than 100 µM; in assay [6] it was more than 100 µM. Further, the TGI in assay [7] was more than 100 µM; in [8], more than 100 µM; in [9], 55.4 µM; in assay [10], more than 100 µM.
As for `Cc1ccc(C2C3=C(N=c4s/c(=C/c5ccc(Br)cc5)c(=O)n42)c2ccc4ccccc4c2OCC3)cc1` (centres undefined), the GI50 in [1] is more than 100 µM; in assay [2] it was more than 100 µM; in assay [3], more than 100 µM; in assay [4] it was 35.7 µM; in assay [5] it was more than 100 µM; in [6], more than 100 µM. The GI50 in assay [7] was more than 100 µM; in assay [8], 54.9 µM; in assay [9], more than 100 µM; in [10], more than 100 µM. For the same molecule, the TGI in assay [1], in assay [2], in assay [3], in assay [4], in assay [5] and in assay [6] was more than 100 µM each time. Further, the TGI in assay [7], in assay [8], in assay [9] and in assay [10] was more than 100 µM throughout.
